# Source: the supplement of paper PMC10307832
# How the values were obtained:
# Experiment in all cases: relative viability (nuclei count vs DMSO), 5 days (fraction); higher = more cells survive
# Kobe2602 + OSI-027 = compound: C1=CC(=CC=C1NC(=S)NNC2=C(C=C(C=C2[N+](=O)[O-])C(F)(F)F)[N+](=O)[O-])F [Kobe2602] + COc1cccc2cc(-c3nc([C@H]4CC[C@H](C(=O)O)CC4)n4ncnc(N)c34)[nH]c12 [OSI-027] (partner 0.5 µM)
# How it was run: (§1)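 Relative viability is defined as nuclei in treated wells over nuclei in vehicle wells. Duplicate plates were run and medians reported. Lung cancer cell lines in 1536-well plates were dosed by pin tool one day after seeding, with one drug or with a fixed anchor-drug dose plus five library-drug doses (not always all listed) in √10 steps, and nuclei were counted after 5 days.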
# Kobe2602 + Phenformin = compound: C1=CC(=CC=C1NC(=S)NNC2=C(C=C(C=C2[N+](=O)[O-])C(F)(F)F)[N+](=O)[O-])F [Kobe2602] + N=C(N)NC(=N)NCCc1ccccc1 [Phenformin] (partner 250 µM)
# How it was run: as §1
# [1] = compound: COc1cc2nccc(Oc3ccc(NC(=O)C4(C(=O)Nc5ccc(F)cc5)CC4)cc3)c2cc1OC [Cabozantinib] + CC(C)C[C@H](NC(=O)[C@H](Cc1ccccc1)NC(=O)c1cnccn1)B(O)O [Bortezomib] (partner 0.002 µM)
# How it was run: as §1
# Zosuquidar + Bortezomib = compound: O[C@@H](COc1cccc2ncccc12)CN1CCN([C@@H]2c3ccccc3[C@@H]3[C@H](c4ccccc42)C3(F)F)CC1 [Zosuquidar] + CC(C)C[C@H](NC(=O)[C@H](Cc1ccccc1)NC(=O)c1cnccn1)B(O)O [Bortezomib] (partner 0.002 µM)
# How it was run: as §1
cell line,measurement,setting,value
LU99A,relative viability,Kobe2602 + OSI-027; first compound 0.2 µM,0.336
same,relative viability,Kobe2602 + OSI-027; first compound 0.6325 µM,0.329
same,relative viability,Kobe2602 + OSI-027; first compound 2 µM,0.281
same,relative viability,Kobe2602 + OSI-027; first compound 6.325 µM,0.342
same,relative viability,Kobe2602 + OSI-027; first compound 20 µM,0.333
same,relative viability,Kobe2602 + Phenformin; first compound 0.2 µM,0.814
same,relative viability,Kobe2602 + Phenformin; first compound 0.6325 µM,0.916
same,relative viability,Kobe2602 + Phenformin; first compound 2 µM,0.79
same,relative viability,Kobe2602 + Phenformin; first compound 6.325 µM,0.906
same,relative viability,Kobe2602 + Phenformin; first compound 20 µM,0.931
same,relative viability,[1]; first compound 0.02 µM,1.13
same,relative viability,[1]; first compound 0.06325 µM,1.16
same,relative viability,[1]; first compound 0.2 µM,1.17
same,relative viability,[1]; first compound 0.6325 µM,0.986
same,relative viability,[1]; first compound 2 µM,1.06
same,relative viability,Zosuquidar + Bortezomib; first compound 0.01 µM,1.09
same,relative viability,Zosuquidar + Bortezomib; first compound 0.03162 µM,1.14
same,relative viability,Zosuquidar + Bortezomib; first compound 0.1 µM,1.22
same,relative viability,Zosuquidar + Bortezomib; first compound 0.3162 µM,1.34
same,relative viability,Zosuquidar + Bortezomib; first compound 1 µM,1.37
LXF-289,relative viability,Kobe2602 + OSI-027; first compound 0.2 µM,0.836
same,relative viability,Kobe2602 + OSI-027; first compound 0.6325 µM,0.836
same,relative viability,Kobe2602 + OSI-027; first compound 2 µM,0.777
same,relative viability,Kobe2602 + OSI-027; first compound 6.325 µM,0.879
same,relative viability,Kobe2602 + OSI-027; first compound 20 µM,0.87
same,relative viability,Kobe2602 + Phenformin; first compound 0.2 µM,0.495
same,relative viability,Kobe2602 + Phenformin; first compound 0.6325 µM,0.577
same,relative viability,Kobe2602 + Phenformin; first compound 2 µM,0.494
same,relative viability,Kobe2602 + Phenformin; first compound 6.325 µM,0.536
same,relative viability,Kobe2602 + Phenformin; first compound 20 µM,0.518
same,relative viability,[1]; first compound 0.02 µM,1.09
same,relative viability,[1]; first compound 0.06325 µM,1.03
same,relative viability,[1]; first compound 0.2 µM,1.01
same,relative viability,[1]; first compound 0.6325 µM,0.956
same,relative viability,[1]; first compound 2 µM,1
same,relative viability,Zosuquidar + Bortezomib; first compound 0.01 µM,0.993
same,relative viability,Zosuquidar + Bortezomib; first compound 0.03162 µM,1.01
same,relative viability,Zosuquidar + Bortezomib; first compound 0.1 µM,1.01
same,relative viability,Zosuquidar + Bortezomib; first compound 0.3162 µM,0.99
same,relative viability,Zosuquidar + Bortezomib; first compound 1 µM,0.976
NCI-H23,relative viability,Kobe2602 + OSI-027; first compound 0.2 µM,0.499
same,relative viability,Kobe2602 + OSI-027; first compound 0.6325 µM,0.673
same,relative viability,Kobe2602 + OSI-027; first compound 2 µM,0.541
same,relative viability,Kobe2602 + OSI-027; first compound 6.325 µM,0.638
same,relative viability,Kobe2602 + OSI-027; first compound 20 µM,0.667
same,relative viability,Kobe2602 + Phenformin; first compound 0.2 µM,0.75
same,relative viability,Kobe2602 + Phenformin; first compound 0.6325 µM,0.782
same,relative viability,Kobe2602 + Phenformin; first compound 2 µM,0.762
same,relative viability,Kobe2602 + Phenformin; first compound 6.325 µM,0.723
same,relative viability,Kobe2602 + Phenformin; first compound 20 µM,0.814
same,relative viability,[1]; first compound 0.06325 µM,1.31
same,relative viability,[1]; first compound 0.2 µM,0.996
same,relative viability,[1]; first compound 0.6325 µM,0.959
same,relative viability,[1]; first compound 2 µM,0.945
same,relative viability,Zosuquidar + Bortezomib; first compound 0.01 µM,0.956
same,relative viability,Zosuquidar + Bortezomib; first compound 0.03162 µM,1.24
same,relative viability,Zosuquidar + Bortezomib; first compound 0.1 µM,1.15
same,relative viability,Zosuquidar + Bortezomib; first compound 0.3162 µM,1.3
same,relative viability,Zosuquidar + Bortezomib; first compound 1 µM,1.33
NCI-H322M,relative viability,Kobe2602 + OSI-027; first compound 0.2 µM,0.573
same,relative viability,Kobe2602 + OSI-027; first compound 0.6325 µM,0.623
same,relative viability,Kobe2602 + OSI-027; first compound 2 µM,0.544
same,relative viability,Kobe2602 + OSI-027; first compound 6.325 µM,0.559
same,relative viability,Kobe2602 + OSI-027; first compound 20 µM,0.557
same,relative viability,Kobe2602 + Phenformin; first compound 0.2 µM,0.798
same,relative viability,Kobe2602 + Phenformin; first compound 0.6325 µM,0.857
same,relative viability,Kobe2602 + Phenformin; first compound 2 µM,0.808
same,relative viability,Kobe2602 + Phenformin; first compound 6.325 µM,0.826
same,relative viability,Kobe2602 + Phenformin; first compound 20 µM,0.771
same,relative viability,[1]; first compound 0.02 µM,1.2
same,relative viability,[1]; first compound 0.06325 µM,1.34
same,relative viability,[1]; first compound 0.6325 µM,1.17
same,relative viability,[1]; first compound 2 µM,1.36
same,relative viability,Zosuquidar + Bortezomib; first compound 0.01 µM,1.27
same,relative viability,Zosuquidar + Bortezomib; first compound 0.03162 µM,1.27
same,relative viability,Zosuquidar + Bortezomib; first compound 0.1 µM,0.827
same,relative viability,Zosuquidar + Bortezomib; first compound 0.3162 µM,1.17
same,relative viability,Zosuquidar + Bortezomib; first compound 1 µM,1.12
NCI-H441,relative viability,Kobe2602 + OSI-027; first compound 0.2 µM,0.616
same,relative viability,Kobe2602 + OSI-027; first compound 0.6325 µM,0.563
same,relative viability,Kobe2602 + OSI-027; first compound 2 µM,0.536
same,relative viability,Kobe2602 + OSI-027; first compound 6.325 µM,0.631
same,relative viability,Kobe2602 + OSI-027; first compound 20 µM,0.783
same,relative viability,Kobe2602 + Phenformin; first compound 0.2 µM,0.801
same,relative viability,Kobe2602 + Phenformin; first compound 0.6325 µM,0.81
same,relative viability,Kobe2602 + Phenformin; first compound 2 µM,0.876
same,relative viability,Kobe2602 + Phenformin; first compound 6.325 µM,0.814
same,relative viability,Kobe2602 + Phenformin; first compound 20 µM,0.903
same,relative viability,[1]; first compound 0.06325 µM,0.494
same,relative viability,[1]; first compound 0.2 µM,0.776
same,relative viability,[1]; first compound 0.6325 µM,0.76
same,relative viability,[1]; first compound 2 µM,0.385
same,relative viability,Zosuquidar + Bortezomib; first compound 0.01 µM,0.43
same,relative viability,Zosuquidar + Bortezomib; first compound 0.03162 µM,0.476
same,relative viability,Zosuquidar + Bortezomib; first compound 0.1 µM,0.444
same,relative viability,Zosuquidar + Bortezomib; first compound 1 µM,0.641
NCI-H460,relative viability,Kobe2602 + OSI-027; first compound 0.2 µM,0.662
same,relative viability,Kobe2602 + OSI-027; first compound 0.6325 µM,0.722
same,relative viability,Kobe2602 + OSI-027; first compound 2 µM,0.695
same,relative viability,Kobe2602 + OSI-027; first compound 6.325 µM,0.629
same,relative viability,Kobe2602 + OSI-027; first compound 20 µM,0.558
same,relative viability,Kobe2602 + Phenformin; first compound 0.2 µM,0.516
same,relative viability,Kobe2602 + Phenformin; first compound 0.6325 µM,0.513
same,relative viability,Kobe2602 + Phenformin; first compound 2 µM,0.614
same,relative viability,Kobe2602 + Phenformin; first compound 6.325 µM,0.514
same,relative viability,Kobe2602 + Phenformin; first compound 20 µM,0.499
same,relative viability,[1]; first compound 0.02 µM,1.38
same,relative viability,[1]; first compound 0.06325 µM,1.15
same,relative viability,[1]; first compound 0.2 µM,1.12
same,relative viability,[1]; first compound 0.6325 µM,1.13
same,relative viability,[1]; first compound 2 µM,1.13
same,relative viability,Zosuquidar + Bortezomib; first compound 0.01 µM,1.01
same,relative viability,Zosuquidar + Bortezomib; first compound 0.03162 µM,1.09
same,relative viability,Zosuquidar + Bortezomib; first compound 0.1 µM,1.14
same,relative viability,Zosuquidar + Bortezomib; first compound 0.3162 µM,1.07
same,relative viability,Zosuquidar + Bortezomib; first compound 1 µM,1.1
NCI-H520,relative viability,Kobe2602 + OSI-027; first compound 0.2 µM,0.281
same,relative viability,Kobe2602 + OSI-027; first compound 0.6325 µM,0.287
same,relative viability,Kobe2602 + OSI-027; first compound 2 µM,0.227
same,relative viability,Kobe2602 + OSI-027; first compound 6.325 µM,0.235
same,relative viability,Kobe2602 + OSI-027; first compound 20 µM,0.266
same,relative viability,Kobe2602 + Phenformin; first compound 0.2 µM,0.539
same,relative viability,Kobe2602 + Phenformin; first compound 0.6325 µM,0.582
same,relative viability,Kobe2602 + Phenformin; first compound 2 µM,0.632
same,relative viability,Kobe2602 + Phenformin; first compound 6.325 µM,0.654
same,relative viability,Kobe2602 + Phenformin; first compound 20 µM,0.539
same,relative viability,[1]; first compound 0.02 µM,0.878
same,relative viability,[1]; first compound 0.06325 µM,0.73
same,relative viability,[1]; first compound 0.2 µM,0.703
same,relative viability,[1]; first compound 0.6325 µM,0.483
same,relative viability,[1]; first compound 2 µM,0.515
same,relative viability,Zosuquidar + Bortezomib; first compound 0.01 µM,0.54
same,relative viability,Zosuquidar + Bortezomib; first compound 0.03162 µM,0.591
same,relative viability,Zosuquidar + Bortezomib; first compound 0.1 µM,0.565
same,relative viability,Zosuquidar + Bortezomib; first compound 0.3162 µM,0.743
same,relative viability,Zosuquidar + Bortezomib; first compound 1 µM,0.729
NCI-H596,relative viability,Kobe2602 + OSI-027; first compound 0.2 µM,0.802
same,relative viability,Kobe2602 + OSI-027; first compound 0.6325 µM,0.698
same,relative viability,Kobe2602 + OSI-027; first compound 2 µM,0.661
same,relative viability,Kobe2602 + OSI-027; first compound 6.325 µM,0.56
same,relative viability,Kobe2602 + OSI-027; first compound 20 µM,0.815
same,relative viability,Kobe2602 + Phenformin; first compound 0.2 µM,0.717
same,relative viability,Kobe2602 + Phenformin; first compound 0.6325 µM,0.816
same,relative viability,Kobe2602 + Phenformin; first compound 2 µM,0.672
same,relative viability,Kobe2602 + Phenformin; first compound 6.325 µM,0.614
same,relative viability,Kobe2602 + Phenformin; first compound 20 µM,0.737
same,relative viability,[1]; first compound 0.02 µM,0.966
same,relative viability,[1]; first compound 0.06325 µM,1.07
same,relative viability,[1]; first compound 0.2 µM,1.02
same,relative viability,[1]; first compound 0.6325 µM,0.802
same,relative viability,[1]; first compound 2 µM,0.996
same,relative viability,Zosuquidar + Bortezomib; first compound 0.01 µM,0.985
same,relative viability,Zosuquidar + Bortezomib; first compound 0.03162 µM,1.09
same,relative viability,Zosuquidar + Bortezomib; first compound 0.1 µM,0.718
same,relative viability,Zosuquidar + Bortezomib; first compound 0.3162 µM,1.02
same,relative viability,Zosuquidar + Bortezomib; first compound 1 µM,1.01
